The values below are quoted from earlier work in patent EP3290033A2, “PHARMACEUTICAL PACKAGE” (Samyang Biopharmaceuticals Corporation, priority 2015, dated 2016).

The conditions of data set [1]: in vivo.
The conditions of data set [2]: higher than that of other first-generation 5-HT3 receptor antagonists.

By half-life is commonly meant how long it takes for the measured level to halve. On to `O=C1c2cccc3c2[C@H](CCC3)CN1[C@@H]1CN2CCC1CC2` [palonosetron, (3aS)-2-[(3S)-1-azabicyclo[2.2.2]oct-3-yl]-2,3,3a,4,5,6-hexahydro-1H-benz[de]isoquinolin-1-one], for which the half-life in data set [1] was ≥ 40 h. Also, the “inhibitory effect on delayed vomiting” value in data set [2] is recorded as 10 times.
